Earlier results in patent US20150037408A1, “Delayed Release Pharmaceutical Compositions of Salsalate” (priority 2012, published 2015).

Columns and labels:
[1] = 3 grams daily (two 750-mg tablets twice daily) for 15 days
[2] = patients with osteoarthrosis of the hip or knee

O=C(Oc1ccccc1C(=O)O)c1ccccc1O [Salsalate, 2-hydroxybenzoic acid 2-carboxyphenyl ester]
efficacy and safety in arthritic disease [1]: effective and safe in ameliorating the symptoms of arthritic disease
clinical improvement versus aspirin [2]: comparable clinical improvement to that with aspirin
side-effects and faecal occult blood loss versus aspirin [2]: significantly superior to aspirin
